ChEMBL document CHEMBL4706476, “Novel Tetrahydropyrido[4,3-d]pyrimidines as Potent Inhibitors of Chaperone Heat Shock Protein 90” (J Med Chem, 2016)
pIC50: −log10 of the molar value. In brackets after ≈: the same amount, converted by molar mass.

Test system: MCF7
Assay: cells
Settings: Homo sapiens, MCF7, 72 h
With `CCN(CC)c1nc(OCCOC)nc2c1CN(C(=O)c1cc(C(C)C)c(O)cc1O)CC2` the pIC50 was 5.54.
Compound `CCOc1nc(OCCOC)nc2c1CN(C(=O)c1cc(C(C)C)c(O)cc1O)CC2` has a pIC50 of 6.74.
Work on `COCCOc1nc2c(c(NC(C)C)n1)CN(C(=O)c1cc(C(C)C)c(O)cc1O)CC2` yielded a pIC50 of 6.60.
Work on `CCOc1ncc2c(n1)CCN(C(=O)c1cc(C(C)C)c(O)cc1O)C2` yielded a pIC50 of 6.21.

Molecular target: Heat shock protein HSP 90-alpha (Homo sapiens, UniProt P07900)
Assay: Displacement of FITC-geldanamycin from N-terminal HSP90alpha (unknown origin) after 30 mins by fluorescence polarization competitive binding assay
Settings: not given
`CCN(CC)c1nc(OCCOC)nc2c1CN(C(=O)c1cc(C(C)C)c(O)cc1O)CC2` gave a pIC50 of 6.99.
`CCOc1nc(OCCOC)nc2c1CN(C(=O)c1cc(C(C)C)c(O)cc1O)CC2` showed a pIC50 of 7.59.
Work on `COCCOc1nc2c(c(NC(C)C)n1)CN(C(=O)c1cc(C(C)C)c(O)cc1O)CC2` yielded a pIC50 of 7.52.
In the case of `CCOc1ncc2c(n1)CCN(C(=O)c1cc(C(C)C)c(O)cc1O)C2`, the pIC50 was 7.25.

Test system: not listed separately
Assay: Distribution coefficient, logD of compound at pH 7.4
Format: physicochemical
Settings: octanol/water
In the case of `CCN(CC)c1nc(OCCOC)nc2c1CN(C(=O)c1cc(C(C)C)c(O)cc1O)CC2`, the logD was 3.08.
Work on `CCOc1nc(OCCOC)nc2c1CN(C(=O)c1cc(C(C)C)c(O)cc1O)CC2` yielded a logD of 2.74.
In the case of `COCCOc1nc2c(c(NC(C)C)n1)CN(C(=O)c1cc(C(C)C)c(O)cc1O)CC2`, the logD was 2.98.
Work on `CCOc1ncc2c(n1)CCN(C(=O)c1cc(C(C)C)c(O)cc1O)C2` yielded a logD of 2.95.

Molecular target: CYP2D6 (Homo sapiens, UniProt P10635)
Sequence (P10635 whole entry): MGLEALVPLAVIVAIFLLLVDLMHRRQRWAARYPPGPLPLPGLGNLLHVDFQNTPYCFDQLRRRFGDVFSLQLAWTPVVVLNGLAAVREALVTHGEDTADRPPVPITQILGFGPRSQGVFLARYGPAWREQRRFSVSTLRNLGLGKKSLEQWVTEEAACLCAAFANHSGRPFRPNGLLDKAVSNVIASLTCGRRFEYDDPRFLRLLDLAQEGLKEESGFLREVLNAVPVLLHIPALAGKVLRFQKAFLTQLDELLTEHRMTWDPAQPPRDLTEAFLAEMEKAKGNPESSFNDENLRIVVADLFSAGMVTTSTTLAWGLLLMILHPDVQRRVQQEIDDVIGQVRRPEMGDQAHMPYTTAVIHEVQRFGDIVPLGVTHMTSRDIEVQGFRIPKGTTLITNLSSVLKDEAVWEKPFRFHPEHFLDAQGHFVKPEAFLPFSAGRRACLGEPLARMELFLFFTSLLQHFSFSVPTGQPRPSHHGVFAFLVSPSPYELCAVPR
Assay: Inhibition of CYP2D6 in human liver microsomes at 10 uM using dextromethorphan as substrate preincubated for 5 mins followed by NADPH addition and measured after 20 mins by LC-MS/MS analysis relative to control
Format: ADME
Settings: probe dextromethorphan, time 25 min
Work on `C=C[C@H]1C[N@@]2CC[C@H]1C[C@@H]2[C@@H](O)c1ccnc2ccc(OC)cc12` [QUINIDINE] yielded an inhibition at 20 min, 10 µM of 89%.

Test system: not listed separately
Assay: Selectivity ratio of IC50 for inhibition of FITC-geldanamycin binding to N-terminal GRP94 (unknown origin) to IC50 for inhibition of FITC-geldanamycin binding to N-terminal HSP90alpha (unknown origin)
Settings: not given
In the case of `CCN(CC)c1nc(OCCOC)nc2c1CN(C(=O)c1cc(C(C)C)c(O)cc1O)CC2`, the Ratio IC50 was 10.8.
With `CCOc1nc(OCCOC)nc2c1CN(C(=O)c1cc(C(C)C)c(O)cc1O)CC2` the Ratio IC50 was 23.4.
Work on `COCCOc1nc2c(c(NC(C)C)n1)CN(C(=O)c1cc(C(C)C)c(O)cc1O)CC2` yielded a Ratio IC50 of 26.2.
`CCOc1ncc2c(n1)CCN(C(=O)c1cc(C(C)C)c(O)cc1O)C2` showed a Ratio IC50 of 10.

Test system: HCT-116
Assay: cells
Settings: Homo sapiens, HCT-116, 72 h
Description: Antiproliferative activity against human HCT-116 cells assessed as reduction in cell viability incubated for 72 hrs by MTT assay
`CCN(CC)c1nc(OCCOC)nc2c1CN(C(=O)c1cc(C(C)C)c(O)cc1O)CC2` gave a pIC50 of 5.45.
For `CCOc1nc(OCCOC)nc2c1CN(C(=O)c1cc(C(C)C)c(O)cc1O)CC2`, the pIC50 was 6.49.
With `COCCOc1nc2c(c(NC(C)C)n1)CN(C(=O)c1cc(C(C)C)c(O)cc1O)CC2` the pIC50 was 6.10.
Work on `CCOc1ncc2c(n1)CCN(C(=O)c1cc(C(C)C)c(O)cc1O)C2` yielded a pIC50 of 6.12.

Test system: not listed separately
Assay: Intrinsic aqueous solubility of the compound
Format: physicochemical
Settings: not given
`CCN(CC)c1nc(OCCOC)nc2c1CN(C(=O)c1cc(C(C)C)c(O)cc1O)CC2` showed a solubility of 95.9 µg/mL (≈ 209 µM).
`CCOc1nc(OCCOC)nc2c1CN(C(=O)c1cc(C(C)C)c(O)cc1O)CC2` gave a solubility of 86.1 µg/mL (≈ 200 µM).
Compound `COCCOc1nc2c(c(NC(C)C)n1)CN(C(=O)c1cc(C(C)C)c(O)cc1O)CC2` has a solubility of 137 µg/mL (≈ 309 µM).
With `CCOc1ncc2c(n1)CCN(C(=O)c1cc(C(C)C)c(O)cc1O)C2` the solubility was 66 µg/mL (≈ 185 µM).

Test system: not listed separately
Assay: Permeability of the compound at pH 7.4 by PAMPA
Format: ADME
Settings: read-out: permeability
Compound `CCN(CC)c1nc(OCCOC)nc2c1CN(C(=O)c1cc(C(C)C)c(O)cc1O)CC2` has a Papp of 107 ×10⁻⁶ cm/s.
`CCOc1nc(OCCOC)nc2c1CN(C(=O)c1cc(C(C)C)c(O)cc1O)CC2` showed a Papp of 77.3 ×10⁻⁶ cm/s.
Compound `COCCOc1nc2c(c(NC(C)C)n1)CN(C(=O)c1cc(C(C)C)c(O)cc1O)CC2` has a Papp of 62.4 ×10⁻⁶ cm/s.
`CCOc1ncc2c(n1)CCN(C(=O)c1cc(C(C)C)c(O)cc1O)C2` gave a Papp of 72.4 ×10⁻⁶ cm/s.

Molecular target: Endoplasmin (Homo sapiens, UniProt P14625)
Sequence (P14625 whole entry): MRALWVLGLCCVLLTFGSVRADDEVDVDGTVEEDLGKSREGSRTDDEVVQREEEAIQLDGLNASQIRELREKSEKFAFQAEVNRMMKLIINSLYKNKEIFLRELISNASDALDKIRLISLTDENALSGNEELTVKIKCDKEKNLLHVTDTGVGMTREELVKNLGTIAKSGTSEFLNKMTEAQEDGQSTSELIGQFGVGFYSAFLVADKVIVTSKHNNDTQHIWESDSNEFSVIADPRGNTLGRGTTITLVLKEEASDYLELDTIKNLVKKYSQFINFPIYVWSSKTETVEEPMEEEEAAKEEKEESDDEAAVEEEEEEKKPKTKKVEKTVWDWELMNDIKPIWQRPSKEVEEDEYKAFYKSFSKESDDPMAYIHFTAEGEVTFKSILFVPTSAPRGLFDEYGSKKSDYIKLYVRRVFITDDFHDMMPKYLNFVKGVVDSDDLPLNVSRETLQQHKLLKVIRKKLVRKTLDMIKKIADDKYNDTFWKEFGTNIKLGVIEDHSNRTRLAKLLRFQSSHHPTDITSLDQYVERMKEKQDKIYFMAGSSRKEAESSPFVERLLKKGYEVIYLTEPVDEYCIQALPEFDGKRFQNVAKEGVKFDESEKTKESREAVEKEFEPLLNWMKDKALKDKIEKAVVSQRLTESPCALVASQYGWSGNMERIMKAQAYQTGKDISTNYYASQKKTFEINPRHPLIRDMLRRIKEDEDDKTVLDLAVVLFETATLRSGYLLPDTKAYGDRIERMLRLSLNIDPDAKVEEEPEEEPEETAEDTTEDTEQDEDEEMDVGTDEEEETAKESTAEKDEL
Assay: Displacement of FITC-geldanamycin from N-terminal GRP94 (unknown origin) after 30 mins by fluorescence polarization competitive binding assay
Settings: not given
`CCN(CC)c1nc(OCCOC)nc2c1CN(C(=O)c1cc(C(C)C)c(O)cc1O)CC2` showed a pIC50 of 5.96.
For `CCOc1nc(OCCOC)nc2c1CN(C(=O)c1cc(C(C)C)c(O)cc1O)CC2`, the pIC50 was 6.22.
`COCCOc1nc2c(c(NC(C)C)n1)CN(C(=O)c1cc(C(C)C)c(O)cc1O)CC2` gave a pIC50 of 6.10.
Compound `CCOc1ncc2c(n1)CCN(C(=O)c1cc(C(C)C)c(O)cc1O)C2` has a pIC50 of 6.25.

Molecular target: CYP1A2 (Homo sapiens, UniProt P05177)
Sequence (P05177 whole entry): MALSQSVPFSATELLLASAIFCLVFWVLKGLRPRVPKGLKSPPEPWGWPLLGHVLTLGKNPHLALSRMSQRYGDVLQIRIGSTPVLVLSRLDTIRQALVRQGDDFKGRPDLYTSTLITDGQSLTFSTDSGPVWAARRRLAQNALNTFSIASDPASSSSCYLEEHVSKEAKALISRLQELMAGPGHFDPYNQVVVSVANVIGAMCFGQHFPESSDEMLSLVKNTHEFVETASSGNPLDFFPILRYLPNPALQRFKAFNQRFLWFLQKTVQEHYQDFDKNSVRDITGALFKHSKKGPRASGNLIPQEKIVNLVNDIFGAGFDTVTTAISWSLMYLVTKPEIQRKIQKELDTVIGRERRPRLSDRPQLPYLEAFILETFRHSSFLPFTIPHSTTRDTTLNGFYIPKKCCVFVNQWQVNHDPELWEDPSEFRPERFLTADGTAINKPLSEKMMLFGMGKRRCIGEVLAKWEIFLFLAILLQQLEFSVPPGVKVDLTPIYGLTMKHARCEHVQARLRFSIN
Assay: Inhibition of CYP1A2 in human liver microsomes at 10 uM using phenacetin as substrate preincubated for 5 mins followed by NADPH addition and measured after 20 mins by LC-MS/MS analysis relative to control
Format: ADME
Settings: probe phenacetin, time 25 min
Compound `O=c1cc(-c2ccccc2)oc2c1ccc1ccccc12` [ALPHA-NAPHTHOFLAVONE] has an inhibition at 20 min, 10 µM of 76%.
